Reference: article PMC13128454, “Mutant p53 protein accumulation is selectively targetable by proximity-inducing drugs” (Nature Chemical Biology, 2025)
Where “and” joins values, the source holds several entries; their conditions need not be identical. Identical values can stand only once. Like-named read-outs stand apart in the source and are kept apart here.

Columns and labels:
Assay type in all cases: cell-based
[1] = target: T1, p53-Y220C–PLK1 ternary complex (Homo sapiens, UniProt P04637+P53350, M133L/N239Y/N268D/V203A/Y220C); experiment: NanoBiT ternary complex assay in cotransfected 293T cells; conditions: for NLuc Signal, Average: 0 nM: 323
T1 construct: NLS–LgBiT–p53-Y220C (DBD) and mEGFP–PLK1–SmBiT; expressed in transfected cells; host or cells: 293T cells, transient cotransfection
Description: After 1 day, the cells were passaged into 384-well plates and treated with varying concentrations of compound.

MFE296 cells = experiment: CellTiter-Glo cell viability
Description: (§1) Cells were plated in 384-well plates (typically 1,500 cells per well) with varying concentrations of compounds, with a total volume of 50 μl per well. CTG reagent was added (25 μl) to the solutions, mixed and read out using an EnVision 2105 multimode plate reader.

MCF7 cells = experiment: CellTiter-Glo cell viability
Description: as §1

[2] = CellTiter-Glo cell viability; conditions: human, DU145 cells, read-out: mean_norm (normalized viability)
Description: as §1

[3] = Concentration 2.44141 nM, 1 day
[4] = Concentration 4.88281 nM, 1 day
[5] = Concentration 9.76562 nM, 1 day
[6] = Concentration 19.5312 nM, 1 day
[7] = Concentration 39.0625 nM, 1 day

CC[C@@H]1C(=O)N(C)c2cnc(Nc3ccc(C(=O)NCCOCCOCCOCCOCCC(=O)N4CCC(Nc5cccc6c5cc(C#CCNc5ccc(S(C)(=O)=O)cc5OC)n6CC(F)(F)F)CC4)cc3OC)nc2N1C1CCCC1 [p53-01, PMV6-PEG4-BI2536]
EC50 ([1]; 24 h, n = 4, read-out: NanoBiT EC50): 2.12 µM | EC50 ([1]; 1 day, n = 6, Fig. 3b, read-out: EC50 NanoBiT ternary complex formation): 1.4 µM | NLuc Signal (replicate) ([1]; Concentration 1.2207 nM, 1 day): 300 and 316 and 296 and 324 and 308 | NLuc Signal, Average ([1]; Concentration 1.2207 nM, 1 day): 310 | NLuc Signal (replicate) [1, 3]: 356 and 348 and 308 and 360 and 340 and 324 | NLuc Signal, Average [1, 3]: 339.333 | NLuc Signal (replicate) [1, 4]: 316 and 344 and 284 and 312 and 332 | NLuc Signal, Average [1, 4]: 317.333 | NLuc Signal (replicate) [1, 5]: 328 and 336 and 296 and 308 and 312 and 360 | NLuc Signal, Average [1, 5]: 323.333 | NLuc Signal (replicate) [1, 6]: 352 and 360 and 304 and 296 and 324 and 300 | NLuc Signal, Average [1, 6]: 322.667 | NLuc Signal (replicate) [1, 7]: 404 and 356 and 324 and 368 and 332 and 364 | NLuc Signal, Average [1, 7]: 358 | NLuc Signal (replicate) ([1]; Concentration 78.125 nM, 1 day): 312 and 292 and 400 and 392 and 356 | NLuc Signal, Average ([1]; Concentration 78.125 nM, 1 day): 351.333 | NLuc Signal (replicate) ([1]; Concentration 156.25 nM, 1 day): 380 and 352 and 372 and 324 and 360 and 332 | NLuc Signal, Average ([1]; Concentration 156.25 nM, 1 day): 353.333 | NLuc Signal (replicate) ([1]; Concentration 312.5 nM, 1 day): 428 and 364 and 392 and 404 and 488 | NLuc Signal, Average ([1]; Concentration 312.5 nM, 1 day): 413.333 | NLuc Signal (replicate) ([1]; Concentration 625 nM, 1 day): 484 and 444 and 472 and 448 and 420 and 408 | NLuc Signal, Average ([1]; Concentration 625 nM, 1 day): 446 | NLuc Signal (replicate) ([1]; Concentration 1250 nM, 1 day): 704 and 792 and 644 and 588 | NLuc Signal, Average ([1]; Concentration 1250 nM, 1 day): 660 | NLuc Signal (replicate) ([1]; Concentration 2500 nM, 1 day): 988 and 1108 and 1092 and 1436 and 1288 | NLuc Signal, Average ([1]; Concentration 2500 nM, 1 day): 1167.33 | NLuc Signal (replicate) ([1]; Concentration 5000 nM, 1 day): 1240 and 1080 and 1140 and 1304 and 1104 and 1468 | NLuc Signal, Average ([1]; Concentration 5000 nM, 1 day): 1222.67 | NLuc Signal (replicate) ([1]; Concentration 10000 nM, 1 day): 1052 and 1356 and 1056 and 1192 and 1180 and 1372 | NLuc Signal, Average ([1]; Concentration 10000 nM, 1 day): 1201.33 | NanoBiT mean_norm ([1]; Concentration 19.5312): 1.047 | NanoBiT mean_norm ([1]; Concentration 39.0625): 1.0545 | NanoBiT mean_norm ([1]; Concentration 78.125): 1.0649 | NanoBiT mean_norm ([1]; Concentration 156.25): 1.0584 | NanoBiT mean_norm ([1]; Concentration 312.5): 1.026 | NanoBiT mean_norm ([1]; Concentration 625): 1.182 | NanoBiT mean_norm ([1]; Concentration 1250): 1.238 | NanoBiT mean_norm ([1]; Concentration 2500): 1.362 | NanoBiT mean_norm ([1]; Concentration 5000): 1.592 | NanoBiT mean_norm ([1]; Concentration 10000): 1.5997 | ternary complex formation between p53-Y220C and PLK1 ([1]; NanoBiT, 1 day): induce ternary complex formation | Max_effect ([1]; sheet 5C): 1.5997 | EC50 ([1]; sheet 5C, read-out: EC50): 2.12 µM | p5301_AUC_to_10uM (MFE296 cells): 0.5186 | mean_norm (normalized viability) (MFE296 cells; Concentration 39.0625, 4 day): 1.0133 | mean_norm (normalized viability) (MFE296 cells; Concentration 78.125, 4 day): 1.079 | mean_norm (normalized viability) (MFE296 cells; Concentration 156.25, 4 day): 1.012 | mean_norm (normalized viability) (MFE296 cells; Concentration 312.5, 4 day): 1.043 | mean_norm (normalized viability) (MFE296 cells; Concentration 625, 4 day): 0.9978 | mean_norm (normalized viability) (MFE296 cells; Concentration 1250, 4 day): 0.7559 | mean_norm (normalized viability) (MFE296 cells; Concentration 2500, 4 day): 0.6581 | mean_norm (normalized viability) (MFE296 cells; Concentration 5000, 4 day): 0.4955 | mean_norm (normalized viability) (MFE296 cells; Concentration 10000, 4 day): 0.246 | IC50 (MFE296 cells; Homo sapiens, MFE-296, 96 h, 4 day treatment): 4.32 µM | p5301_AUC_to_10uM (MCF7 cells): 0.5585 | mean_norm (normalized viability) (MCF7 cells; Concentration 39.0625, 4 day): 1.014 | mean_norm (normalized viability) (MCF7 cells; Concentration 78.125, 4 day): 0.9684 | mean_norm (normalized viability) (MCF7 cells; Concentration 156.25, 4 day): 0.9955 | mean_norm (normalized viability) (MCF7 cells; Concentration 312.5, 4 day): 1.001 | mean_norm (normalized viability) (MCF7 cells; Concentration 625, 4 day): 0.97 | IC50 (MCF7 cells; Homo sapiens, 96 h, 4 day treatment): 2.81 µM | viability at 4 day ([2]; Concentration 39.0625, 4 day): 104% | viability at 4 day ([2]; Concentration 78.125, 4 day): 101%
